Source: patent US20100021420A1, “COMBINATIONS OF PYRAZOLE DERIVATIVES FOR THE INHIBITION OF CDKS AND GSK'S” (ASTEX THERAPEUTICS LIMITED, priority 2006, published 2010)

What was measured:
[1] = antitumour agent; cited from earlier work
[2] = tested on: Human colon carcinoma cell line HT29; experiment: IC50 shift assay (combination), HT29 cells; assay type: cell-based; details: concurrent 72 hours, camptothecin 24 hours then Compound I 48 hours, or Compound I prior to camptothecin
Method: Human colon carcinoma cell line HT29 (ECACC No. 91072201) cells were seeded onto 96-well tissue culture plates at a concentration of 5×10^3 cells/well. Cells were allowed to recover overnight prior to addition of compound(s) or vehicle control (0.2% DMSO) as follows;
Compounds were added according to one of the following schedules; • a) Concurrent for 72 hours. • b) Compound I for 24 hours followed by camptothecin for 48 hours. • c) Camptothecin for 24 hours followed by Compound I for 48 hours.
Following a total of 72 hours compound incubation, Alamar Blue™ was added to a final concentration of 10% (v/v) and incubated at 37° C. for 6 hours. Fluorescent product was quantified by reading at d535/25× (excitation) and d590/20 m (emission) on a Fusion Reader (Perkin Elmer). The IC50 for camptothecin in the presence of varying doses of Compound I was determined.

HCT116 cell line = experiment: IC50 shift assay (combination), HCT116 cells; assay type: cell-based
SkBR3 cell line = experiment: IC50 shift assay (combination), SkBR3 cells; assay type: cell-based
A2780 cells = experiment: IC50 shift assay (combination), A2780 cells; assay type: cell-based
[3] = tested on: human colon carcinoma cell line HCT 116; experiment: Anti-proliferative activity, HCT-116 cell line; assay type: cell-based; details: HCT 116 (ECACC No. 91091005)
Excerpt: See Example 15 of WO 2006/077426 at pages 100-101 (which is incorporated herein by reference).

PKC = details: cited from earlier work
OVCAR-3 tumour cells = details: in which PKB is amplified, concentrations of 50 and 100 microM; cited from earlier work
[4] = mice; doses 10 times more than were needed for antitumour activity; cited from earlier work
[5] = Thermogravimetric analysis; assay type: physicochemical
Method: Approximately 5 mg of sample (accurately weighed) was placed into a platinum TGA pan and loaded into a TGA 7 gravimetric analyser. The sample under study was then heated at a rate of 10° C./min (from ambient to 300° C.) and the resulting change in weight monitored. A dry nitrogen purge gas at a flow rate of 20 ml/min was used to produce an inert atmosphere and prevent oxidation of the sample during heating. Prior to analysis the instrument was weight calibrated using a 100 mg reference standard and temperature calibrated using an Alumel reference standard (using the Curie point transition temperature).

[6] = Vapour sorption/desorption analysis; assay type: physicochemical
Method: Approximately 20 mg of sample was placed into a wire-mesh vapour sorption balance pan and loaded into an ‘IgaSorp’ vapour sorption balance (Hiden Analytical Instruments) held at 25+/−0.1° C. The sample was then dried by maintaining a 0% humidity environment (using mass flow control apparatus) until no further weight change was recorded. Subsequently, the sample was then subjected to a ramping profile from 0-90% relative humidity (% RH) at 10% RH increments, maintaining the sample at each step until equilibration had been attained (99.5% step completion).
Upon reaching equilibration, the % RH within the apparatus was ramped to the next step and the equilibration procedure repeated. After completion of the sorption cycle, the sample was then dried using the same procedure. The weight change during the sorption/desorption cycles was then monitored, allowing for the hygroscopic nature of the sample to be determined.

[7] = tested on: Acute Promyelocytic Leukemia (APL); details: cited from earlier work
[8] = tested on: P-glycoprotein-overexpressing subline of leukemic cell line CCRF-CEM; details: cited from earlier work
CLL = details: initial therapy, symptomatic CLL patients, cited from earlier work

SMILES: CCN[C@H]1CO[C@@H](O[C@H]2[C@H](O[C@H]3C#C/C=C\C#C[C@]4(O)CC(=O)C(NC(=O)OC)=C3/C4=C\CSSSC)O[C@H](C)[C@@H](NO[C@H]3C[C@H](O)[C@H](SC(=O)c4c(C)c(I)c(O[C@@H]5O[C@@H](C)[C@H](O)[C@@H](OC)[C@H]5O)c(OC)c4OC)[C@@H](C)O3)[C@@H]2O)C[C@@H]1OC [Calicheamicin]
- potency relative to adriamycin [1]: over 1,000 times

SMILES: O=C(NC1CCNCC1)c1n[nH]cc1NC(=O)c1c(Cl)cccc1Cl [Compound I, 4-(2,6-dichloro-benzoylamino)-1H-pyrazole-3-carboxylic acid piperidin-4-ylamide]
- effect of combination with camptothecin in IC50 shift assay [2]: additive
- effect of combination with Iressa (synergy) confirmed (HCT116 cell line): confirmed
- effect of combination with Iressa (synergy) confirmed (SkBR3 cell line): confirmed
- effect of combination with Paclitaxel in IC50 shift assay (A2780 cells; Paclitaxel 24 h followed by Compound I 48 h): synergy
- effect of combination with 5-FU in IC50 shift assay (A2780 cells; added concurrently for 72 h): mildly synergistic
- effect of combination with Iressa in IC50 shift assay (A2780 cells; added concurrently for 72 h): synergistic
- effect of combination with Paclitaxel in IC50 shift assay (A2780 cells; added concurrently for 72 h): Additive
- effect of combination with Cisplatin in IC50 shift assay (A2780 cells; concurrently for 72 h or Cisplatin 24 h followed by compound I 48 h): additive
- effect of combination with Etoposide in IC50 shift assay (A2780 cells; concurrently for 72 h or Etoposide 24 h followed by compound I 48 h): additive
- effect of combination with Gemcitibine in IC50 shift assay (A2780 cells; concurrently for 72 h or Gemcitibine 24 h followed by Compound I 48 h): additive
- effect of combination with Vinblastine in IC50 shift assay (A2780 cells; concurrently for 72 h or Vinblastine 24 h followed by compound I 48 h): additive

SMILES: O=C(NC1CCNCC1)c1n[nH]cc1NC(=O)c1c(Cl)cccc1Cl [Example 1]
- IC50 [3]: < 20 µM

SMILES: O=S(=O)(NCCNCC=C(c1ccccc1)c1ccccc1)c1cccc2cnccc12 [NL-71-101]
- IC50 (PKC): 104 µM
- apoptosis (OVCAR-3 tumour cells): induced apoptosis

SMILES: CCOC(=O)c1ccc2[nH]c3c(OC)c4[nH]c5ccc(C(=O)OCC)cc5c4cc3c2c1 [SR-13668]
- adverse effects [4]: no adverse effects

SMILES: CS(=O)(=O)N1CCC(NC(=O)c2n[nH]cc2NC(=O)c2c(Cl)cccc2Cl)CC1 [Set B Example 1, 4-(2,6-dichloro-benzoylamino)-1H-pyrazole-3-carboxylic acid (1-methanesulphonyl-piperidin-4-yl)-amide]
- significant event (thermally induced partial degradation) in TGA plot ([5]; onset prior to the main melt transition): about 288 °C
- mass loss (TGA) ([5]; up to 150° C., crystals from Example 5 Step 8): approximately 0.2%
- weight loss during initial drying ([6]; 0% RH, 25 °C): approximately 0.01%
- hygroscopicity / hydrate formation ([6]; storage in elevated humidity conditions): physically stable with regard to hygroscopicity
- total weight increase ([6]; upon equilibration at 90% RH, 25 °C): 0.24%

SMILES: CC1=C(/C=C/C(C)=C/C=C/C(C)=C/C(=O)O)C(C)(C)CCC1 [Tretinoin]
- remissions in APL patients [7]: 64-100%

SMILES: C/C1=C/C[C@@H](/C(C)=C/c2csc(C)n2)OC(=O)C[C@H](O)C(C)(C)C(=O)[C@H](C)[C@@H](O)[C@@H](C)CCC1 [desoxyepothilone B]
- IC50 [8]: 0.017 µM

SMILES: Nc1nc(F)nc2c1ncn2[C@@H]1O[C@H](CO)[C@@H](O)[C@@H]1O [fludarabine, 9-β-D-arabinofuranosyl-2-fluoro-adenine]
- rate of complete responses (CLL; v 3% with alkylator-based therapies): 27%
- duration of progression-free survival (CLL; v 17 months with alkylator-based therapies): 33 months
